{
  "source": "ChEMBL document CHEMBL2073867",
  "about": "“cDNA cloning and inducible expression of human multidrug resistance associated protein 3 (MRP3)” (FEBS Lett, 1998)",
  "key": {"[1]": {"biological_target": "Multidrug resistance associated protein (Homo sapiens) (UniProt Q96QA9)", "sequence (Q96QA9 as listed by the source)": "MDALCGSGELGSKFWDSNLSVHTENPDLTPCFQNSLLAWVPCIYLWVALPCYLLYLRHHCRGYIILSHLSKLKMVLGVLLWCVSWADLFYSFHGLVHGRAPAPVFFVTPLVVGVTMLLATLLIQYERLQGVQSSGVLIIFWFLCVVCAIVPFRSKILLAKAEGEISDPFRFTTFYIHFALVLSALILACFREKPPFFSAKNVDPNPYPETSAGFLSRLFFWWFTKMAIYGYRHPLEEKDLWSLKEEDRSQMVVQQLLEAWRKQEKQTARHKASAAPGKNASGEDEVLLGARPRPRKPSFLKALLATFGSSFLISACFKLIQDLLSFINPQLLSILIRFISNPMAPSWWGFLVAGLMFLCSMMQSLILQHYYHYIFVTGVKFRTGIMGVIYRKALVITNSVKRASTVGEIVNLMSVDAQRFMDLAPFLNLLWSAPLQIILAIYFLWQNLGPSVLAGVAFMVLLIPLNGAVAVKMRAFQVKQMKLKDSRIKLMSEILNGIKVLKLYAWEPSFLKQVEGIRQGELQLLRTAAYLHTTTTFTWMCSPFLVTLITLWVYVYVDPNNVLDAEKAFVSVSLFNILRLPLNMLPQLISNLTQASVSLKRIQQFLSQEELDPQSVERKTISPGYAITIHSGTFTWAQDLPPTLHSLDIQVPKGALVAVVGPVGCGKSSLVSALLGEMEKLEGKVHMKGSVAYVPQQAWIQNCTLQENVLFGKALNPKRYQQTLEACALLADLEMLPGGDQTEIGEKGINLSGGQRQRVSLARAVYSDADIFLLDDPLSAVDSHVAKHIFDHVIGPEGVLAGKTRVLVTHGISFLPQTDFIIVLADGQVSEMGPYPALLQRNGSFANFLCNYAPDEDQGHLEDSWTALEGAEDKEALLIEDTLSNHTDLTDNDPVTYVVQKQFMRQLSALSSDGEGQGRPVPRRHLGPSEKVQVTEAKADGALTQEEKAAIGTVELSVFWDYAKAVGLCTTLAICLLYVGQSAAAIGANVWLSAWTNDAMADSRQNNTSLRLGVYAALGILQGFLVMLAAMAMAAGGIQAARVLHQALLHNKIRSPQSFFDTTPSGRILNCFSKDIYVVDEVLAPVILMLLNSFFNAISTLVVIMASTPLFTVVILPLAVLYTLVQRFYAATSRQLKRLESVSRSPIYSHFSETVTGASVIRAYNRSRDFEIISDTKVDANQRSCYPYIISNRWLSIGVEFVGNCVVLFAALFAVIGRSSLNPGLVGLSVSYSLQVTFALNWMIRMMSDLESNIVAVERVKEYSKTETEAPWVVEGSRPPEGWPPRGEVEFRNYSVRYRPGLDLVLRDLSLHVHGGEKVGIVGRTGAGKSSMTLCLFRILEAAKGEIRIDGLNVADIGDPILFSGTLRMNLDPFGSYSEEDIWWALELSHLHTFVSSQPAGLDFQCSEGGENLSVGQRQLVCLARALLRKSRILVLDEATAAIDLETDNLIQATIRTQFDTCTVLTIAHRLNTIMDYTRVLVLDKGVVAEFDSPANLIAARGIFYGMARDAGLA", "experiment": "(§1) TP_TRANSPORTER: Northern blot from HepG2 cells", "format": "functional, cell-based"}, "[2]": {"biological_target": "Multidrug resistance-associated protein 1 (Homo sapiens, UniProt P33527)", "sequence (P33527 whole entry)": "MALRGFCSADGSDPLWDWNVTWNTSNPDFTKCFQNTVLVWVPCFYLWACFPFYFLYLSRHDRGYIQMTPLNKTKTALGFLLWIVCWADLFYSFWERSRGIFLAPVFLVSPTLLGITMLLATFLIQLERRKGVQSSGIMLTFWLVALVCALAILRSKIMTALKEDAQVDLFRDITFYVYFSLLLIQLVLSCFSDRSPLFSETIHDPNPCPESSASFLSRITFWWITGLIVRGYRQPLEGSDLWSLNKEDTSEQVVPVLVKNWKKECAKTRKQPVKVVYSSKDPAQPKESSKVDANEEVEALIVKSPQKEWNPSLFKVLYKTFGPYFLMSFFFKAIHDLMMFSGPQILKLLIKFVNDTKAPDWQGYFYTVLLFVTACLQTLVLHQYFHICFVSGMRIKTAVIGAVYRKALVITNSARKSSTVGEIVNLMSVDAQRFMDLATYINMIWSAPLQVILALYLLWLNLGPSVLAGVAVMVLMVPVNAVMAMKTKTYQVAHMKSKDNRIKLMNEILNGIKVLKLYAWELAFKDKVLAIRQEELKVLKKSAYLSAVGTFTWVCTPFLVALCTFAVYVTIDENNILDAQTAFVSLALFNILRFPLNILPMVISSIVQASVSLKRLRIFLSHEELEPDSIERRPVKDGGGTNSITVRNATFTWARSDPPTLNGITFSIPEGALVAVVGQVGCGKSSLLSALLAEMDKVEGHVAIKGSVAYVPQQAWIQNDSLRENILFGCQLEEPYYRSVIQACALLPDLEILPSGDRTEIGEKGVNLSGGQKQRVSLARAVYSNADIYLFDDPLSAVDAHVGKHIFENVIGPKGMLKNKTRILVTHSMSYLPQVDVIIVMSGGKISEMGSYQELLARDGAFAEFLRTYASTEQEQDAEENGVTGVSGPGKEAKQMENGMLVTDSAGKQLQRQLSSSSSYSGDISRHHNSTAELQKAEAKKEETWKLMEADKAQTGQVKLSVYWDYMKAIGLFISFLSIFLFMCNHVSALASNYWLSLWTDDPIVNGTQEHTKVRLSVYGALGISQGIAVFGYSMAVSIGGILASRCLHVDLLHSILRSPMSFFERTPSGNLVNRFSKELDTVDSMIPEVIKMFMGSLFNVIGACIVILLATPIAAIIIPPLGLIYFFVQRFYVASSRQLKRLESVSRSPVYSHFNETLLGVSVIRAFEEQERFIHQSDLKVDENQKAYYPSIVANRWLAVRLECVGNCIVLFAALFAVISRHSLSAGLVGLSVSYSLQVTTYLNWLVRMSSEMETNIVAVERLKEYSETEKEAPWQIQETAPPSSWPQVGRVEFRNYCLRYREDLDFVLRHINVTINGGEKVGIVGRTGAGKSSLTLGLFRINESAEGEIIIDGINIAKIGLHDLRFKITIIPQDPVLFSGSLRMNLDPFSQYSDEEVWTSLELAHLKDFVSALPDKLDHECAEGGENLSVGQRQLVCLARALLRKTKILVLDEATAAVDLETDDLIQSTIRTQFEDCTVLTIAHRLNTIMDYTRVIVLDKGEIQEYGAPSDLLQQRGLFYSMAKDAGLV", "experiment": "as §1", "format": "functional, cell-based"}},
  "data": [
    {"smiles": "CCC1(c2ccccc2)C(=O)NC(=O)NC1=O", "note": "[PHENOBARBITAL]", "values": [
      {"measurement": "Activity", "setting": "[1]", "result": "inducer [+]"},
      {"measurement": "Activity", "setting": "[2]", "result": "inducer [+]"}
    ]}
  ]
}
